Measured values: publication PMC11200585, “Prospects for Prostate Cancer Chemotherapy: Cytotoxic Evaluation and Mechanistic Insights of Quinolinequinones with ADME/PK Profile” (Biomedicines, 2024)

How the values were obtained:
Assay type in all cases: cell-based, human
[1] = test system: A549/ATCC; test: NCI-60 one-dose screen (non-small cell lung cancer); settings: 10 µM single dose, 48 h
[2] = test system: EKVX; test: as above; settings: 10 µM single dose, 48 h
[3] = test system: HOP-62; test: as above; settings: 10 µM single dose
[4] = test system: HOP-92; test: as above; settings: 10 µM single dose, 48 h
[5] = test system: NCI-H226; test: as above; settings: 10 µM single dose, 48 h
[6] = test system: NCI-H23; test: as above; settings: 10 µM single dose, 48 h
[7] = test system: NCI-H322M; test: as above; settings: 10 µM single dose, 48 h
[8] = test system: NCI-H460; test: as above; settings: 10 µM single dose
[9] = test system: NCI-H522; test: as above; settings: 10 µM single dose, 48 h
[10] = test system: EKVX; test: NCI-60 five-dose assay (non-small cell lung cancer); settings: 48 h, SRB
[11] = test system: HOP-62; test: as above; settings: 48 h, SRB
[12] = test system: HOP-92; test: as above; settings: 48 h, SRB
[13] = test system: NCI-H23; test: as above; settings: 48 h, SRB
[14] = test system: NCI-H460; test: as above; settings: 48 h, SRB
[15] = test system: NCI-H522; test: as above; settings: 48 h, SRB
[16] = test system: HCC-2998; test: NCI-60 five-dose assay (colon cancer); settings: 48 h, SRB
[17] = test system: HCT-15; test: NCI-60 five-dose assay (colon cancer); settings: 48 h, SRB
[18] = test system: HT29; test: NCI-60 five-dose assay (colon cancer); settings: SRB
[19] = test system: SW-620; test: NCI-60 five-dose assay (colon cancer); settings: 48 h, SRB
[20] = test system: SF-268; test: NCI-60 five-dose assay (CNS cancer); settings: 48 h, SRB
[21] = test system: SF-539; test: NCI-60 five-dose assay (CNS cancer); settings: 48 h, SRB
[22] = test system: SNB-75; test: NCI-60 five-dose assay (CNS cancer); settings: 48 h, SRB
[23] = test system: U251; test: NCI-60 five-dose assay (CNS cancer); settings: SRB
[24] = test system: M14; test: NCI-60 five-dose assay (melanoma); settings: 48 h, SRB
[25] = test system: SK-MEL-5; test: NCI-60 five-dose assay (melanoma); settings: 48 h, SRB
[26] = test system: UACC-62; test: NCI-60 five-dose assay (melanoma); settings: 48 h, SRB
[27] = test system: SK-OV-3; test: NCI-60 five-dose assay (ovarian cancer); settings: 48 h, SRB
[28] = test system: 786-0; test: NCI-60 five-dose assay (renal cancer); settings: 48 h, SRB
[29] = test system: SN12C; test: NCI-60 five-dose assay (renal cancer); settings: 48 h, SRB
[30] = test system: TK-10; test: NCI-60 five-dose assay (renal cancer); settings: 48 h, SRB
[31] = test system: UO-31; test: NCI-60 five-dose assay (renal cancer); settings: 48 h, SRB
[32] = test system: MCF7; test: NCI-60 five-dose assay (breast cancer); settings: 48 h, SRB
[33] = test system: MDA-MB-231/ATCC; test: NCI-60 five-dose assay (breast cancer); settings: 48 h, SRB
[34] = test system: T-47D; test: NCI-60 five-dose assay (breast cancer); settings: 48 h, SRB
[35] = Homo sapiens, read-out: LC50 (the source's name)

## COc1cc(NC2=C(Cl)C(=O)c3nc(C)ccc3C2=O)cc(OC)c1 [AQQ5]
[1]
  GP (growth percentage): 42.41%
[2]
  GP (growth percentage): 74.66%
[3]; 48 h
  GP (growth percentage): 0.85%
[3]; Homo sapiens
  inhibition at 10 µM: 99.2%
[4]
  GP (growth percentage): −12.23%
[5]
  GP (growth percentage): 68.59%
[6]
  GP (growth percentage): −55.61%
[7]
  GP (growth percentage): 89.75%
[8]; 48 h
  GP (growth percentage): 2.02%
[8]; Homo sapiens
  inhibition at 10 µM: 98%
[9]
  GP (growth percentage): −80.61%
[10]
  TGI: 3.12 µM
[10]; Homo sapiens
  GI50: 1.6 µM
[10]; [35]
  CC50: 6.08 µM
[11]
  TGI: 14.1 µM
[11]; Homo sapiens
  GI50: 4.26 µM
  LC50 (concentration killing 50% of cells): 37.7 µM
[12]
  TGI: 3.17 µM
[12]; Homo sapiens
  GI50: 1.73 µM
  LC50 (50% lethal concentration): 5.83 µM
[13]
  TGI: 3.15 µM
[13]; Homo sapiens
  GI50: 1.53 µM
[13]; [35]
  CC50: 6.49 µM
[14]
  TGI: 8.07 µM
[14]; Homo sapiens
  GI50: 2.68 µM
[14]; [35]
  CC50: 82.6 µM
[15]
  TGI: 3.06 µM
[15]; Homo sapiens
  GI50: 1.56 µM
  LC50: 6.02 µM
[16]
  TGI: 3.26 µM
[16]; Homo sapiens
  GI50: 1.81 µM
  LC50 (concentration killing 50% of cells): 5.88 µM
[17]
  TGI: 3.92 µM
[17]; Homo sapiens
  GI50: 1.54 µM
[18]; 48 h
  TGI: 3.48 µM
[18]; Homo sapiens, HT-29, 48 h
  GI50: 1.87 µM
  LC50 (concentration killing 50% of cells): 6.48 µM
[19]
  TGI: 3.47 µM
[19]; Homo sapiens
  GI50: 1.76 µM
  LC50: 6.85 µM
[20]
  TGI: 14.4 µM
[20]; Homo sapiens
  GI50: 3.25 µM
  LC50 (concentration killing 50% of cells): 72.7 µM
[21]
  TGI: 3.22 µM
[21]; Homo sapiens
  GI50: 1.79 µM
  LC50: 5.78 µM
[22]
  TGI: 5.37 µM
[22]; Homo sapiens
  GI50: 1.94 µM
  LC50 (50% lethal concentration): 23.2 µM
[23]; 48 h
  TGI: 4.44 µM
[23]; Homo sapiens, U-251, 48 h
  GI50: 1.92 µM
  LC50 (concentration killing 50% of cells): 10.8 µM
[24]
  TGI: 3.09 µM
[24]; Homo sapiens
  GI50: 1.69 µM
  LC50: 5.66 µM
[25]
  TGI: 2.97 µM
[25]; Homo sapiens
  GI50: 1.62 µM
[25]; [35]
  CC50: 5.47 µM
[26]
  TGI: 3.42 µM
[26]; Homo sapiens
  GI50: 1.77 µM
  LC50 (concentration killing 50% of cells): 6.6 µM
[27]
  TGI: 25.1 µM
[27]; Homo sapiens
  GI50: 12.6 µM
  LC50 (50% net cell kill): 50.1 µM
[28]
  TGI: 2.88 µM
[28]; Homo sapiens
  GI50: 1.52 µM
  LC50: 5.44 µM
[29]
  TGI: 3.25 µM
[29]; Homo sapiens
  GI50: 1.71 µM
  LC50 (concentration killing 50% of starting cells): 6.19 µM
[30]
  TGI: 3.78 µM
[30]; Homo sapiens
  GI50: 2.32 µM
  LC50 (concentration killing 50% of starting cells): 6.15 µM
[31]
  TGI: 3.06 µM
[31]; Homo sapiens
  GI50: 1.69 µM
  LC50 (lethal concentration 50%): 5.53 µM
[32]
  TGI: 5.33 µM
[32]; Homo sapiens
  GI50: 1.82 µM
  LC50: > 100 µM
[33]
  TGI: 3.08 µM
[33]; Homo sapiens
  GI50: 1.46 µM
  LC50 (concentration killing 50% of cells): 6.48 µM
[34]
  TGI: 3.62 µM
[34]; Homo sapiens, T47D
  GI50: 1.5 µM
[34]; Homo sapiens, T47D, read-out: LC50 (the source's name)
  CC50: 8.74 µM
